# According to patent publication US9393221B2, “Methods and compounds for reducing intracellular lipid storage” (THE GENERAL HOSPITAL CORPORATION, priority 2011, dated 2016):
# Counter-ions that a name gives are not always drawn.
# Tested on: ATGL-KO iPSCs
# Assay: High throughput iPSC chemical screening, Oil Red O (ORO) lipid accumulation; for Z-score: test concentration or dose not given here
# Format: cell-based, mouse
# Conditions: not given
row,Structure (SMILES),Z-score
1,Oc1ccc2c3c1O[C@H]1[C@@H](O)CC[C@@]4(O)[C@@H](C2)N(CC2CCC2)CC[C@]314 [Nalbuphine hydrochloride],−1.0996

# Same assay, conditions: glycolytic switch compounds
row,Structure (SMILES),Rank in normalized ORO score from screen
1,CN(C/C=C/c1ccccc1)Cc1cccc2ccccc12 [Naftifine hydrochloride],383

# Same assay, conditions: normalized ORO level vs DMSO-treated cells; compound present during 7 days differentiation, 96-well; negative = decrease in lipid accumulation
row,Structure (SMILES),Z-score
1,"C[C@](N)(Cc1ccc(O)c(O)c1)C(=O)O [Methyldopa (L,−)]",0.02395
2,CCOC(=O)[C@@](C)(N)Cc1ccc(O)c(O)c1 [Methyldopate hydrochloride],0.5054
3,CC[C@@H](CO)NC(=O)[C@@H]1C=C2c3cccc4[nH]cc(c34)C[C@H]2N(C)C1 [Methylergometrine maleate],0.02492
4,C[C@H]1NC(=O)NC1=O [Methylhydantoin-5-(D)],−0.6204
5,C[C@@H]1NC(=O)NC1=O [Methylhydantoin-5-(L)],−0.97
6,"C[C@H]1C[C@@H]2[C@H]([C@@H](O)C[C@@]3(C)[C@H]2CC[C@]3(O)C(=O)CO)[C@@]2(C)C=CC(=O)C=C12 [Methylprednisolone, 6-alpha]",−1.1745
7,Cc1cc2c(cc1S(N)(=O)=O)S(=O)(=O)CCC2 [Meticrane],−0.0455
8,CN1CCCC(CC2c3ccccc3Sc3ccccc32)C1 (stereo not drawn) [Metixene hydrochloride],−0.8136
9,CCN(CC)CCNC(=O)c1cc(Cl)c(N)cc1OC [Metoclopramide monohydrochloride],−1.0824
10,Cc1ccccc1N1C(=O)c2cc(S(N)(=O)=O)c(Cl)cc2NC1C (stereo not drawn) [Metolazone],−0.7452
11,CC(=O)Nc1c(I)c(C(=O)N[C@H]2C(O)O[C@H](CO)[C@@H](O)[C@@H]2O)c(I)c(N(C)C(C)=O)c1I (stereo partly drawn) [Metrizamide],1.8943
12,Cc1ncc([N+](=O)[O-])n1CCO [Metronidazole],0.716
13,CC(C)(C(=O)c1cccnc1)c1cccnc1 [Metyrapone],−1.7744
14,"C[C@@]1(O)CCOC(=O)C1 [Mevalonic-D, L acid lactone]",−1.4333
15,Cc1cccc(C)c1OCC(C)N (stereo not drawn) [Mexiletine hydrochloride],1.054
16,CN1CCN2c3ccccc3Cc3ccccc3C2C1 (stereo not drawn) [Mianserine hydrochloride],−1.3517
17,Clc1ccc(COC(Cn2ccnc2)c2ccc(Cl)cc2Cl)c(Cl)c1 (stereo not drawn) [Miconazole],−0.018
18,COc1ccc(OC)c(C(O)CNC(=O)CN)c1 (stereo not drawn) [Midodrine hydrochloride],−0.5001
19,CC#C[C@]1(O)CC[C@H]2[C@@H]3CCC4=CC(=O)CCC4=C3[C@@H](c3ccc(N(C)C)cc3)C[C@@]21C [Mifepristone],−0.6348
20,Cc1[nH]c(=O)c(C#N)cc1-c1ccncc1 [Milrinone],−0.2851
21,NC(Cn1ccc(=O)c(O)c1)C(=O)O (stereo not drawn) [Mimosine],0.9075
22,Cc1cc(-c2ccccc2)nnc1NCCN1CCOCC1 [Minaprine dihydrochloride],0.429
23,CN(C)c1ccc(O)c2c1C[C@H]1C[C@H]3[C@H](N(C)C)C(O)=C(C(N)=O)C(=O)[C@@]3(O)C(O)=C1C2=O [Minocycline hydrochloride],5.776
24,Nc1cc(N2CCCCC2)nc(N)[n+]1[O-] [Minoxidil],0.06676
25,O=C1c2c(O)ccc(O)c2C(=O)c2c(NCCNCCO)ccc(NCCNCCO)c21 [Mitoxantrone dihydrochloride],45.2169
26,CCc1c(C)[nH]c2c1C(=O)C(CN1CCOCC1)CC2 (stereo not drawn) [Molindone hydrochloride],2.263
27,CCOC(=O)[N-]c1cn(N2CCOCC2)n[o+]1 [Molsidomine],1.761
28,C[C@@H]1C[C@H]2[C@@H]3CCC4=CC(=O)C=C[C@]4(C)[C@@]3(Cl)[C@@H](O)C[C@]2(C)[C@@]1(OC(=O)c1ccco1)C(=O)CCl [Mometasone furoate],−0.7613

row,Structure (SMILES),Z-score
1,CC[C@@]1([C@@H]2O[C@@H]([C@H]3O[C@@](O)(CO)[C@H](C)C[C@@H]3C)C[C@@H]2C)CC[C@H]([C@]2(C)CC[C@]3(C[C@H](O)[C@@H](C)[C@@H]([C@@H](C)[C@@H](OC)[C@H](C)C(=O)O)O3)O2)O1 [Monensin sodium salt],18.1768
2,Oc1ccc(OCc2ccccc2)cc1 [Monobenzone],−1.7289
3,C[C@H]1C(=O)O[C@@H]2CCN3CC=C(COC(=O)[C@](C)(O)[C@]1(C)O)[C@H]23 [Monocrotaline],−1.7819
4,Cc1ccsc1/C=C/C1=NCCCN1C [Morantel tartrate],1.005
5,CCOC(=O)Nc1ccc2c(c1)N(C(=O)CCN1CCOCC1)c1ccccc1S2 [Moricizine hydrochloride],−0.1525
6,Cl.N=C(N=C(N)N)N1CCOCC1 [Moroxidine hydrochloride],0.05075
7,CO[C@@]1(NC(=O)C(C(=O)O)c2ccc(O)cc2)C(=O)N2C(C(=O)O)=C(CSc3nnnn3C)CO[C@@H]21 (stereo partly drawn) [Moxalactam disodium salt],−0.7608
8,CC(=O)Oc1cc(C(C)C)c(OCCN(C)C)cc1C.Cl [Moxisylyte hydrochoride],−0.4722
9,COc1nc(C)nc(Cl)c1N=C1NCCN1 [Moxonidine],−0.6893
10,COc1c(C)c2c(c(O)c1C/C=C(\C)CCC(=O)O)C(=O)OC2 [Mycophenolic acid],36.1922
11,c1cncc(C2=NCCC2)c1 [Myosmine],0.265
12,O=c1c(O)c(-c2cc(O)c(O)c(O)c2)oc2cc(O)cc(O)c12 [Myricetin],27.33
13,CNc1ncnc2c1ncn2[C@@H]1O[C@H](CO)[C@@H](O)[C@H]1O [N6-methyladenosine],−0.5287
14,CC(=O)N[C@@H](CC(C)C)C(=O)O [N-Acetyl-L-leucine],−1.2512
15,COc1ccc2cc(CCC(C)=O)ccc2c1 [Nabumetone],−0.6754
16,NC(=O)c1ccc[n+]([C@@H]2O[C@H](COP(=O)([O-])OP(=O)(O)OC[C@H]3O[C@@H](n4cnc5c(N)ncnc54)[C@H](O)[C@@H]3O)[C@@H](O)[C@H]2O)c1 [Nadide],0.1385
17,CC(C)(C)NCC(O)COc1cccc2c1CC(O)C(O)C2 (stereo not drawn) [Nadolol],−1.7201
18,CCOc1ccc2ccccc2c1C(=O)N[C@@H]1C(=O)N2[C@@H]1SC(C)(C)[C@@H]2C(=O)O [Nafcillin sodium salt monohydrate],−0.1498
19,CCN(CC)CCOC(=O)C(Cc1cccc2ccccc12)CC1CCCO1 (stereo not drawn) [Nafronyl oxalate],0.6546
20,CN(C/C=C/c1ccccc1)Cc1cccc2ccccc12 [Naftifine hydrochloride],−0.6354
21,COc1ccccc1N1CCN(CC(O)COc2cccc3ccccc23)CC1 (stereo not drawn) [Naftopidil dihydrochloride],−0.9212
22,CCn1cc(C(=O)O)c(=O)c2ccc(C)nc21 [Nalidixic acid sodium salt hydrate],−0.4868
23,C=CCN1CC[C@]23c4c5ccc(O)c4O[C@H]2C(=O)CC[C@@]3(O)[C@H]1C5 [Naloxone hydrochloride],−0.3899
24,O=C1CC[C@@]2(O)[C@H]3Cc4ccc(O)c5c4[C@@]2(CCN3CC2CC2)[C@H]1O5 [Naltrexone hydrochloride dihydrate],−0.609
25,C=C1[C@H]2C[C@@]3([C@@H]1O)[C@@H](C[C@@H]2O)[C@]12[C@@H]4C[C@H]3[C@H]1N(CC)C[C@]4(C)CC[C@@H]2O [Napelline],−1.869
26,c1ccc2c(CC3=NCCN3)cccc2c1 [Naphazoline hydrochloride],−0.8458
27,COc1ccc2cc([C@H](C)C(=O)O)ccc2c1 [Naproxen],−0.3678
